{
  "source": "paper PMC6155239",
  "about": "“Targeting PFKFB3 radiosensitizes cancer cells and suppresses homologous recombination” (Nature Communications, 2018)",
  "key": {"[1]": {"system": "peripheral blood mononuclear cells (PBMCs)", "assay": "Viability of PBMCs", "format": "cell-based"}, "U2OS DR-GFP cells": {"system": "U2OS DR-GFP cells", "assay": "DR-GFP (HR) assay", "format": "cell-based", "settings": "DMSO = 100% activity", "protocol": "5 × 10^4 U2OS (DR-GFP) cells were seeded into 12-well plates, 24 h later cells were treated with the indicated siRNAs or inhibitors and, 24 h later, transfected with 150 ng of an I-SceI vector using JetPEI or JetPRIME (Polyplus transfections). The next day, the medium was changed; 24 h after this, cells were harvested by trypsinization and washed with PBS, and the GFP signal was measured by flow cytometry on a FACS Navios (as described above). The frequency of repair in cells treated with inhibitors or transfected with the various siRNAs was calculated relative to cells treated with DMSO or transfected with control siRNA."}, "U2OS cells [2]": {"system": "U2OS cells", "assay": "DNA fiber assay", "format": "cell-based", "settings": "10 μM", "protocol": "1 × 10^5 cells were seeded into 6-well plates, 24 h later cells were treated with the indicated inhibitors or nucleosides, and 24 h later DNA was labeled with 25 μM CldU (Sigma, C6891) in pre-warmed DMEM for 20 min, washed and then labeled with 250 μM IdU (Sigma I7125) in pre-warmed DMEM for 20 min, before harvesting by scraping in cold PBS. Harvested cells were diluted to 1 × 10^6 cells/mL, spreading and staining was performed as described previously described. Fluorescence images were captured using a Zeiss LSM 780 inverted confocal microscope using a 63 × 1.4 oil immersion objective, excitation wavelengths of 488 and 555 nm, and analyzed using the ImageJ software. At least 300 unidirectional forks labeled with both CldU and IdU were measured for every condition."}, "U2OS cells [3]": {"system": "U2OS cells", "assay": "IR-induced Mre11 / Nbs1 foci formation", "format": "cell-based", "settings": "treatment prior to IR (6 Gy, 2 h recovery)", "protocol": "Cells were grown on sterilized coverslips and fixed with 4% paraformaldehyde (PFA) (Santa Cruz) and 2% sucrose (Sigma Aldrich) for 15 min at room temperature. They were then permeabilized with 0.2% NP-40 (Thermo Scientific) for 10 min at room temperature followed by 30 min of blocking in blocking buffer (2 or 3% BSA, 5% glycerol, 0.1% Tween 20 (Sigma Aldrich)). Coverslips were subsequently incubated for 1, 2, or 24 h in primary antibody and 40 min in secondary antibody diluted in blocking buffer, DNA was stained with DAPI for 10 min. The coverslips were mounted with Prolonged Gold mounting medium (Invitrogen). Images were acquired with a Zeiss LSM 780 microscope using a 40× or 63× oil immersion lens and processed in ImageJ and CellProfiler."}, "U2OS cells [4]": {"system": "U2OS cells", "assay": "Cell cycle analysis (propidium iodide, flow cytometry)", "format": "cell-based", "settings": "24 h post-IR", "protocol": "For cell cycle analysis, cells were treated or transfected with siRNA as described and harvested at the indicated time points with trypsin. For studies using IR, cells were exposed to IR with 2 Gy, and harvested at the indicated time points with trypsin. The cells were washed in PBS and fixed with 70% ethanol in PBS at 4 °C for 1 h and then stored at −20 °C until staining. Ethanol was removed by centrifugation and cells were then washed in PBS before staining DNA with propidium iodide (PI) solution containing 40 μg/mL PI, 100 μg/mL RNase A, and 0.1% Triton X-100 (Sigma Aldrich). Cells were analyzed by flow cytometry on a FACS Navios (Beckman Coulter) using Kaluza software."}, "U2OS cells [5]": {"system": "U2OS cells", "assay": "DDR signaling, western blot / RPA32 intensity", "format": "cell-based", "protocol": "Cells were lysed on ice using the NP-40 lysis buffer (50 mM Tris–HCl pH 8.0, 150 mM NaCl, 1% NP-40) supplemented with protease and phosphatase inhibitors (Roche). Protein lysates were quantified using the Pierce BCA Protein Assay Kit (ThermoFisher Scientific), equal amounts of protein were heated to 70 °C in NuPAGE LDS Sample Buffer (ThermoFisher Scientific) and loaded on Mini-PROTEAN® precast gels (Bio-Rad) and run at 120 V. Transfer to nitrocellulose membrane (Bio-Rad) was done using Trans-Blot Turbo Transfer System (Bio-Rad). Membranes were blocked for 1 h at RT in blocking buffer (5% BSA, 0.1% Tween-20 in PBS, or 1:1 Li-Cor Blocking Buffer/TBS + 0.05% Tween-20 (TBS-T)), incubated with primary antibodies overnight at 4 °C and then incubated 1 h at RT with secondary antibodies diluted at 1:10,000 in 1:1 Li-Cor blocking buffer/TBS-T. Bands were visualized with an Odyssey Fc Imager and analyzed with ImageJ or with Image Studio Software (Li-Cor Biosciences). Uncropped western blots are shown in Supplementary Figure 10, 11, 12, 13, 14, 15, 16."}, "[6]": {"target": "T1, ABL1(T315I)-phosphorylated (Homo sapiens, UniProt P00519, T315I)", "T1 construct": "purchased DiscoverX (Eurofins) KINOMEscan / scanEDGE, inferred from the naming style", "assay": "KINOMEscan", "format": "binding", "settings": "2000 nM; read-out: Percent Control"}, "ABL1-nonphosphorylated": {"target": "T2, ABL1-nonphosphorylated (Homo sapiens, UniProt P00519)", "T2 construct": "purchased DiscoverX (Eurofins) KINOMEscan / scanEDGE, inferred from the naming style", "assay": "KINOMEscan", "format": "binding", "settings": "2000 nM; read-out: Percent Control"}, "AURKA": {"target": "T3, AURKA (Homo sapiens, UniProt O14965)", "T3 construct": "purchased DiscoverX (Eurofins) KINOMEscan / scanEDGE, inferred from the naming style", "T3 sequence (O14965 whole entry)": "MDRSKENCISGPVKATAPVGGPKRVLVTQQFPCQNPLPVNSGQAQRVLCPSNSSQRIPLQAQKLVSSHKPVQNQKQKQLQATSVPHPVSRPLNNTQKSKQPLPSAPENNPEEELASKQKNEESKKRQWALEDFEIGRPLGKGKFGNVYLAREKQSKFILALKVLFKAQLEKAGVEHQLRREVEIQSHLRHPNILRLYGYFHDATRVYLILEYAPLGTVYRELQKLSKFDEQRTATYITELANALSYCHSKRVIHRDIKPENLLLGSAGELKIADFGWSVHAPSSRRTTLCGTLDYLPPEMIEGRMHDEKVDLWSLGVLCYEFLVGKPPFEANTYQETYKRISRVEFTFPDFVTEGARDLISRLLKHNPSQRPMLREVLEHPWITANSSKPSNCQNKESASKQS", "assay": "KINOMEscan", "format": "binding", "settings": "2000 nM; read-out: Percent Control"}, "AURKB": {"target": "T4, AURKB (Homo sapiens, UniProt Q96GD4)", "T4 construct": "purchased DiscoverX (Eurofins) KINOMEscan / scanEDGE, inferred from the naming style", "T4 sequence (Q96GD4 whole entry)": "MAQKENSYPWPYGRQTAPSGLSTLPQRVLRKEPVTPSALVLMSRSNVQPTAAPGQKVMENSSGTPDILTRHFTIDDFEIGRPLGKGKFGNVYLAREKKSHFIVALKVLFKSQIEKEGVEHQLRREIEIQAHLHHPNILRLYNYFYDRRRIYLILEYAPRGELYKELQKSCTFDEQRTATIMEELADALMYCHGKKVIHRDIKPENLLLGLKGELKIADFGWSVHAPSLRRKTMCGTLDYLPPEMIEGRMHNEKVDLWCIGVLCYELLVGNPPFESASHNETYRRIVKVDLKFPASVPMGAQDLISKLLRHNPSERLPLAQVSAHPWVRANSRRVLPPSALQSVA", "assay": "KINOMEscan", "format": "binding", "settings": "2000 nM; read-out: Percent Control"}, "BRAF": {"target": "T5, BRAF (Homo sapiens, UniProt P15056)", "T5 construct": "purchased DiscoverX (Eurofins) KINOMEscan / scanEDGE, inferred from the naming style", "T5 sequence (P15056 whole entry)": "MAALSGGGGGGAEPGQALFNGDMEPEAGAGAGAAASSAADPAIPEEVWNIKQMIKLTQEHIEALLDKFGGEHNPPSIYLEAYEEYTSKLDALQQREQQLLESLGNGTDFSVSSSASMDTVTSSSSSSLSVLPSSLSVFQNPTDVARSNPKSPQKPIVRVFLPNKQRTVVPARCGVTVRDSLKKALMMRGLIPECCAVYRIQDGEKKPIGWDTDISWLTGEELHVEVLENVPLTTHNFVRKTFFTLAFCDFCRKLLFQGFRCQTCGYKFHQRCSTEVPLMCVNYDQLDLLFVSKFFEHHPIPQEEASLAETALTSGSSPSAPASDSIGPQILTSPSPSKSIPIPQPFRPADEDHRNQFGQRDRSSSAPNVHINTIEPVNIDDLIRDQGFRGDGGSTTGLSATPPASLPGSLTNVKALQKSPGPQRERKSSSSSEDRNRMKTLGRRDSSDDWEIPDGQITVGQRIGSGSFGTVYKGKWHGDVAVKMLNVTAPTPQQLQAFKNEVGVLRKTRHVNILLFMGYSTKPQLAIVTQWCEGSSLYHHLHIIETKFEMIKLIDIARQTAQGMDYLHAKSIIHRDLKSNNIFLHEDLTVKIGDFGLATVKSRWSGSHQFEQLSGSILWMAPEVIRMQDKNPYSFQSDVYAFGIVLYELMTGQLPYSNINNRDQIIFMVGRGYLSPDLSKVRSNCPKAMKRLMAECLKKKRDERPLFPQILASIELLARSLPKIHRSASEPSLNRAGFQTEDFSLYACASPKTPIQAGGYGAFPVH", "assay": "KINOMEscan", "format": "binding", "settings": "2000 nM; read-out: Percent Control"}, "BTK": {"target": "T6, BTK (Homo sapiens, UniProt Q06187)", "T6 construct": "purchased DiscoverX (Eurofins) KINOMEscan / scanEDGE, inferred from the naming style", "T6 sequence (Q06187 whole entry)": "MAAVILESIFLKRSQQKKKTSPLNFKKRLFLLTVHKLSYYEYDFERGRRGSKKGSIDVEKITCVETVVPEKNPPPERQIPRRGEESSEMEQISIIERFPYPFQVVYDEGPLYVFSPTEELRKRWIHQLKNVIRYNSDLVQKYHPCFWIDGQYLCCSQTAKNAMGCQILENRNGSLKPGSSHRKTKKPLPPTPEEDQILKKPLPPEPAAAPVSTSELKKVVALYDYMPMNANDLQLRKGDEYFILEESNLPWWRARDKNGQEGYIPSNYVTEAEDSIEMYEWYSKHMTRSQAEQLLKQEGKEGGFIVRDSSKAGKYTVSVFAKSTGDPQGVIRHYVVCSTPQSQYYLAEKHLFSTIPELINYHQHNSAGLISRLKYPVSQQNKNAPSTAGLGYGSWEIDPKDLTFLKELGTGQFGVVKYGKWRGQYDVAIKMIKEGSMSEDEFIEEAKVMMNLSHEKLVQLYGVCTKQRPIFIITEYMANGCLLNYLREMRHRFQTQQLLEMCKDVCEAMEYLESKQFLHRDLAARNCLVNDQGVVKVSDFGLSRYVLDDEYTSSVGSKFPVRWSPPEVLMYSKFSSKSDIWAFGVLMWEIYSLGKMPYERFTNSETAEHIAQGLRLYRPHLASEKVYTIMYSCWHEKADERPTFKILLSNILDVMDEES", "assay": "KINOMEscan", "format": "binding", "settings": "2000 nM; read-out: Percent Control"}, "CDK9": {"target": "T7, CDK9 (Homo sapiens, UniProt P50750)", "T7 construct": "purchased DiscoverX (Eurofins) KINOMEscan / scanEDGE, inferred from the naming style", "assay": "KINOMEscan", "format": "binding", "settings": "2000 nM; read-out: Percent Control"}, "CHEK1": {"target": "T8, CHEK1 (Homo sapiens, UniProt O14757)", "T8 construct": "purchased DiscoverX (Eurofins) KINOMEscan / scanEDGE, inferred from the naming style", "assay": "KINOMEscan", "format": "binding", "settings": "2000 nM; read-out: Percent Control"}, "CSNK1D": {"target": "T9, CSNK1D (Homo sapiens, UniProt P48730)", "T9 construct": "purchased DiscoverX (Eurofins) KINOMEscan / scanEDGE, inferred from the naming style", "T9 sequence (P48730 whole entry)": "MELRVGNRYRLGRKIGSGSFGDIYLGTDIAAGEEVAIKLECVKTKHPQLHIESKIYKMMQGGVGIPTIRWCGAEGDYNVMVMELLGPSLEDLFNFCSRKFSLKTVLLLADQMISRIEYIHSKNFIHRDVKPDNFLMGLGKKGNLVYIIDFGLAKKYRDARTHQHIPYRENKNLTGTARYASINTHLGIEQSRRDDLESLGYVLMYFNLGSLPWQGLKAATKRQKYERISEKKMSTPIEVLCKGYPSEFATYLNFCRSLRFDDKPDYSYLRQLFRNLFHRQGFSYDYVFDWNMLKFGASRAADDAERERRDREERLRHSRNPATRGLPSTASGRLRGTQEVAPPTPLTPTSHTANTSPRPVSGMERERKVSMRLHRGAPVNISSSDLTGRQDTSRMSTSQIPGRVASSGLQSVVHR", "assay": "KINOMEscan", "format": "binding", "settings": "2000 nM; read-out: Percent Control"}, "DCAMKL1": {"target": "T10, DCAMKL1 (Homo sapiens, UniProt O15075)", "T10 construct": "purchased DiscoverX (Eurofins) KINOMEscan / scanEDGE, inferred from the naming style", "T10 sequence (O15075 whole entry)": "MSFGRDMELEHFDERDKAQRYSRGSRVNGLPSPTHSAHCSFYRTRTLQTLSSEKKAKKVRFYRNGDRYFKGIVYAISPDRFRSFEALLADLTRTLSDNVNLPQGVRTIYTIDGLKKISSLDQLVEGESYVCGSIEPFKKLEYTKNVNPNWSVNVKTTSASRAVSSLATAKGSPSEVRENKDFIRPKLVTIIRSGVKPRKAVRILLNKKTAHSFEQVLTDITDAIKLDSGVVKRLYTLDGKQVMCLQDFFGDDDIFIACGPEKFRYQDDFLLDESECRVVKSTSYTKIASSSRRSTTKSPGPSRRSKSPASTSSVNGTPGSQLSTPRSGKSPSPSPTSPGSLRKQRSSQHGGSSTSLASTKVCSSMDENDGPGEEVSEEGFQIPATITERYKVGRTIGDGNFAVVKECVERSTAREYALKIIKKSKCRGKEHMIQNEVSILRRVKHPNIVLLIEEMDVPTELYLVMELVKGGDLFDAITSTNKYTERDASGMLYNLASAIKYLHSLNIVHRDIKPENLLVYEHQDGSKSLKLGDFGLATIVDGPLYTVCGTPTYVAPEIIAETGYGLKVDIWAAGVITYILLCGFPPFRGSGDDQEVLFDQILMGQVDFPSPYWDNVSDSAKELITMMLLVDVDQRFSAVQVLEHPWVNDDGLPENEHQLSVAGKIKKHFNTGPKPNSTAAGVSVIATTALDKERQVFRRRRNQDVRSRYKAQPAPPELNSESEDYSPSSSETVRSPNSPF", "assay": "KINOMEscan", "format": "binding", "settings": "2000 nM; read-out: Percent Control"}, "EGFR": {"target": "T11, EGFR (Homo sapiens, UniProt P00533)", "T11 construct": "purchased DiscoverX (Eurofins) KINOMEscan / scanEDGE, inferred from the naming style", "assay": "KINOMEscan", "format": "binding", "settings": "2000 nM; read-out: Percent Control"}, "ERK1": {"target": "T12, ERK1 (Homo sapiens, UniProt P27361)", "T12 construct": "purchased DiscoverX (Eurofins) KINOMEscan / scanEDGE, inferred from the naming style", "T12 sequence (P27361 whole entry)": "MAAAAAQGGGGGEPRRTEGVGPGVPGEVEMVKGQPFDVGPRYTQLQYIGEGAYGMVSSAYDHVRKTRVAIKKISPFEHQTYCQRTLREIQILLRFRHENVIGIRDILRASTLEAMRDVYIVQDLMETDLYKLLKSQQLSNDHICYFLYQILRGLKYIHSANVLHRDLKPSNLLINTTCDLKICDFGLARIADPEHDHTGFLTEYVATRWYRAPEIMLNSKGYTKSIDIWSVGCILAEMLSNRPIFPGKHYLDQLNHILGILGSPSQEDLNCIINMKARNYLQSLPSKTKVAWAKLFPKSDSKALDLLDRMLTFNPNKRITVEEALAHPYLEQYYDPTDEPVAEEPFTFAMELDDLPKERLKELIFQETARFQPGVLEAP", "assay": "KINOMEscan", "format": "binding", "settings": "2000 nM; read-out: Percent Control"}, "FGFR3": {"target": "T13, FGFR3 (Homo sapiens, UniProt P22607)", "T13 construct": "purchased DiscoverX (Eurofins) KINOMEscan / scanEDGE, inferred from the naming style", "assay": "KINOMEscan", "format": "binding", "settings": "2000 nM; read-out: Percent Control"}, "FLT3": {"target": "T14, FLT3 (Homo sapiens, UniProt P36888)", "T14 construct": "purchased DiscoverX (Eurofins) KINOMEscan / scanEDGE, inferred from the naming style", "T14 sequence (P36888 27-993)": "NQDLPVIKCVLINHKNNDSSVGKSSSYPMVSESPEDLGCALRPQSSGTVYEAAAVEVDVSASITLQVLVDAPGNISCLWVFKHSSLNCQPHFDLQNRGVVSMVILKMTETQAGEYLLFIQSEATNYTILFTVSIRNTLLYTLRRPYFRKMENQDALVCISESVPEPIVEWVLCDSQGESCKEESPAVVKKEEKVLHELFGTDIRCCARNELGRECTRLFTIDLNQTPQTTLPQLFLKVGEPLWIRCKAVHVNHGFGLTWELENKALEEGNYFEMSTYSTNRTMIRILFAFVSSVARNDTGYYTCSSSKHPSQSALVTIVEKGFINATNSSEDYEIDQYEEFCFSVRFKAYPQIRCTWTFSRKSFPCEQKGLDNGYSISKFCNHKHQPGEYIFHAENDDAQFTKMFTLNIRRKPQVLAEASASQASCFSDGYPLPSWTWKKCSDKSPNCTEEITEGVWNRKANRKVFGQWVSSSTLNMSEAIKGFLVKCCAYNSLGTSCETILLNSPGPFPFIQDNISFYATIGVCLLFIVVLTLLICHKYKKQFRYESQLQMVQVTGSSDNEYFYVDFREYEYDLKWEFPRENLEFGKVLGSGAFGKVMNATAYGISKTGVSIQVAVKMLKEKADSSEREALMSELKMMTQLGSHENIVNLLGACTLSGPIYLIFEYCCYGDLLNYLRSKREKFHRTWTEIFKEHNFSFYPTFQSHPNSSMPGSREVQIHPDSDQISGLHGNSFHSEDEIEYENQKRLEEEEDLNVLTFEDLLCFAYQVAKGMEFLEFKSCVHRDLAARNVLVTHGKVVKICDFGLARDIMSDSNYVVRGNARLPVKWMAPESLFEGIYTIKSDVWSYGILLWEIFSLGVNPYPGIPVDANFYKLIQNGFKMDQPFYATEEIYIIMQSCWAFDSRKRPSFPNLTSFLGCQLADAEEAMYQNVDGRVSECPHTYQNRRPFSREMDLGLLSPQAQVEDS", "assay": "KINOMEscan", "format": "binding", "settings": "2000 nM; read-out: Percent Control"}, "GSK3B": {"target": "T15, GSK3B (Homo sapiens, UniProt P49841)", "T15 construct": "purchased DiscoverX (Eurofins) KINOMEscan / scanEDGE, inferred from the naming style", "assay": "KINOMEscan", "format": "binding", "settings": "2000 nM; read-out: Percent Control"}},
  "data": [
    {"smiles": "O=C(OCCO)c1ccc(NS(=O)(=O)c2cccc(-c3cc(F)ccc3O)c2)cc1O", "note": "[KAN0438757, 2-Hydroxyethyl-4-{[(5′-fluoro-2′-hydroxybiphenyl-3-yl)sulfonyl]amino}-2-hydroxybenzoate]", "values": [
      {"measurement": "effect on viability of PBMCs", "setting": "[1]", "value": "not affected"},
      {"measurement": "HR activity as compared to vehicle-treated cells", "setting": "U2OS DR-GFP cells", "value": 10, "unit": "%"},
      {"measurement": "incorporation of CldU and IdU / replication fork speed (in words)", "setting": "U2OS cells [2]", "value": "severely decreased"},
      {"measurement": "IR-induced Mre11 or Nbs1 foci formation (in words)", "setting": "U2OS cells [3]", "value": "did not affect"},
      {"measurement": "accumulation of cells in G2/M phase upon IR (in words)", "setting": "U2OS cells [4]", "value": "increased accumulation of cells in the G2/M phase"},
      {"measurement": "IR-induced phosphorylation of ATM, H2AX, or KAP-1 (in words)", "setting": "U2OS cells [5]; 10 μM 24 h", "value": "did not affect"},
      {"measurement": "induction of RPA-coated ssDNA, p53, phosphorylation of ATR, ATM, Chk1, H2AX (in words)", "setting": "U2OS cells [5]; no IR", "value": "did not induce"}
    ]},
    {"smiles": "O=C(O)c1ccc(NS(=O)(=O)c2cccc(-c3cc(F)ccc3O)c2)cc1O", "note": "[KAN0438241, 4-{[(5′-Fluoro-2′-hydroxybiphenyl-3-yl)sulfonyl]amino}-2-hydroxybenzoic acid]", "values": [
      {"measurement": "remaining binding at 2 µM", "setting": "[6]", "value": 100, "unit": "%"},
      {"measurement": "remaining binding at 2 µM", "setting": "ABL1-nonphosphorylated", "value": 100, "unit": "%"},
      {"measurement": "remaining binding at 2 µM", "setting": "AURKA", "value": 97, "unit": "%"},
      {"measurement": "remaining binding at 2 µM", "setting": "AURKB", "value": 92, "unit": "%"},
      {"measurement": "remaining binding at 2 µM", "setting": "BRAF", "value": 100, "unit": "%"},
      {"measurement": "remaining binding at 2 µM", "setting": "BTK", "value": 100, "unit": "%"},
      {"measurement": "remaining binding at 2 µM", "setting": "CDK9", "value": 100, "unit": "%"},
      {"measurement": "remaining binding at 2 µM", "setting": "CHEK1", "value": 89, "unit": "%"},
      {"measurement": "remaining binding at 2 µM", "setting": "CSNK1D", "value": 100, "unit": "%"},
      {"measurement": "remaining binding at 2 µM", "setting": "DCAMKL1", "value": 95, "unit": "%"},
      {"measurement": "remaining binding at 2 µM", "setting": "EGFR", "value": 93, "unit": "%"},
      {"measurement": "remaining binding at 2 µM", "setting": "ERK1", "value": 99, "unit": "%"},
      {"measurement": "remaining binding at 2 µM", "setting": "FGFR3", "value": 95, "unit": "%"},
      {"measurement": "remaining binding at 2 µM", "setting": "FLT3", "value": 94, "unit": "%"},
      {"measurement": "remaining binding at 2 µM", "setting": "GSK3B", "value": 91, "unit": "%"}
    ]}
  ]
}
